In article doi:10.1101/2023.12.04.569845, “Identification of 4-(6-((2-methoxyphenyl)amino)pyrazin-2-yl)benzoic acids as CSNK2A inhibitors with antiviral activity and improved selectivity over PIM3” (bioRxiv, 2023):
Where two headings read alike, the source gives them in different places. Values belong to the molecule of their own block, whether it stands above or below them.

Key:
Assay in all cases: biochemical
Set-up in all cases: Thermal shift (DSF, SYPRO Orange) Tm shift of recombinant kinase domains at 10 uM compound
CSNK1E = CSNK1E (Homo sapiens, UniProt P49674)
PAK1 = PAK1 (Homo sapiens, UniProt Q13153)
Sequence of PAK1 (Q13153 whole entry): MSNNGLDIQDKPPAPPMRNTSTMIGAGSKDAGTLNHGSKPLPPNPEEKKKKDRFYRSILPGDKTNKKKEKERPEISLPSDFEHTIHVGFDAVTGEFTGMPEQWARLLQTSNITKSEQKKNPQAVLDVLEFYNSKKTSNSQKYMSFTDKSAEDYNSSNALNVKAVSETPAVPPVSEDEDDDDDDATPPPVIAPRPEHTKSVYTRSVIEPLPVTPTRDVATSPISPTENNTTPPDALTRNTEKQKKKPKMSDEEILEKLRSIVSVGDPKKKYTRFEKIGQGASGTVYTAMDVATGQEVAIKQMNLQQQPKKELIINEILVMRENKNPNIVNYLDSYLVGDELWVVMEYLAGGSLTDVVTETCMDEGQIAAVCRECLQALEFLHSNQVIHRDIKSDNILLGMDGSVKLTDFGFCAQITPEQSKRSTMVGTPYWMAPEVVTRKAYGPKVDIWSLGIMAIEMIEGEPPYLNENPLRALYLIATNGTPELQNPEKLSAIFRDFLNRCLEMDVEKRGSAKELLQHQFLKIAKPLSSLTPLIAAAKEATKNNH

BRD4 = BRD4 (Homo sapiens, UniProt O60885)
MAP2K1 = MAP2K1 (Homo sapiens, UniProt Q02750)
JNK1 = target: T1, JNK1 (Homo sapiens, UniProt P45983)
T1 construct: gene MAPK8
T1 sequence (P45983 whole entry): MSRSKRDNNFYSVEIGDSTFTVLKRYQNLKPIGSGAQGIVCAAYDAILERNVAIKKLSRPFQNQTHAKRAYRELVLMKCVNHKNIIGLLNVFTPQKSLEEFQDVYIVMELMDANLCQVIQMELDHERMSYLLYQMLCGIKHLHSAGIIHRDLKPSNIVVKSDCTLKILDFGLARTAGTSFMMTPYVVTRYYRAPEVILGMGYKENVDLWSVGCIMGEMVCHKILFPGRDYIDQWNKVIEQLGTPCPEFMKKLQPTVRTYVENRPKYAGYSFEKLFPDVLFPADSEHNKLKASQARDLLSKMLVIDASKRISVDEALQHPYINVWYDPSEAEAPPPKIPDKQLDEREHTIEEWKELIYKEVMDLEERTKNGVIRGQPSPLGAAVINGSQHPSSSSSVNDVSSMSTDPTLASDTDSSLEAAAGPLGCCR

TAF1 = TAF1 (Homo sapiens, UniProt P21675)
Sequence of TAF1 (P21675 whole entry): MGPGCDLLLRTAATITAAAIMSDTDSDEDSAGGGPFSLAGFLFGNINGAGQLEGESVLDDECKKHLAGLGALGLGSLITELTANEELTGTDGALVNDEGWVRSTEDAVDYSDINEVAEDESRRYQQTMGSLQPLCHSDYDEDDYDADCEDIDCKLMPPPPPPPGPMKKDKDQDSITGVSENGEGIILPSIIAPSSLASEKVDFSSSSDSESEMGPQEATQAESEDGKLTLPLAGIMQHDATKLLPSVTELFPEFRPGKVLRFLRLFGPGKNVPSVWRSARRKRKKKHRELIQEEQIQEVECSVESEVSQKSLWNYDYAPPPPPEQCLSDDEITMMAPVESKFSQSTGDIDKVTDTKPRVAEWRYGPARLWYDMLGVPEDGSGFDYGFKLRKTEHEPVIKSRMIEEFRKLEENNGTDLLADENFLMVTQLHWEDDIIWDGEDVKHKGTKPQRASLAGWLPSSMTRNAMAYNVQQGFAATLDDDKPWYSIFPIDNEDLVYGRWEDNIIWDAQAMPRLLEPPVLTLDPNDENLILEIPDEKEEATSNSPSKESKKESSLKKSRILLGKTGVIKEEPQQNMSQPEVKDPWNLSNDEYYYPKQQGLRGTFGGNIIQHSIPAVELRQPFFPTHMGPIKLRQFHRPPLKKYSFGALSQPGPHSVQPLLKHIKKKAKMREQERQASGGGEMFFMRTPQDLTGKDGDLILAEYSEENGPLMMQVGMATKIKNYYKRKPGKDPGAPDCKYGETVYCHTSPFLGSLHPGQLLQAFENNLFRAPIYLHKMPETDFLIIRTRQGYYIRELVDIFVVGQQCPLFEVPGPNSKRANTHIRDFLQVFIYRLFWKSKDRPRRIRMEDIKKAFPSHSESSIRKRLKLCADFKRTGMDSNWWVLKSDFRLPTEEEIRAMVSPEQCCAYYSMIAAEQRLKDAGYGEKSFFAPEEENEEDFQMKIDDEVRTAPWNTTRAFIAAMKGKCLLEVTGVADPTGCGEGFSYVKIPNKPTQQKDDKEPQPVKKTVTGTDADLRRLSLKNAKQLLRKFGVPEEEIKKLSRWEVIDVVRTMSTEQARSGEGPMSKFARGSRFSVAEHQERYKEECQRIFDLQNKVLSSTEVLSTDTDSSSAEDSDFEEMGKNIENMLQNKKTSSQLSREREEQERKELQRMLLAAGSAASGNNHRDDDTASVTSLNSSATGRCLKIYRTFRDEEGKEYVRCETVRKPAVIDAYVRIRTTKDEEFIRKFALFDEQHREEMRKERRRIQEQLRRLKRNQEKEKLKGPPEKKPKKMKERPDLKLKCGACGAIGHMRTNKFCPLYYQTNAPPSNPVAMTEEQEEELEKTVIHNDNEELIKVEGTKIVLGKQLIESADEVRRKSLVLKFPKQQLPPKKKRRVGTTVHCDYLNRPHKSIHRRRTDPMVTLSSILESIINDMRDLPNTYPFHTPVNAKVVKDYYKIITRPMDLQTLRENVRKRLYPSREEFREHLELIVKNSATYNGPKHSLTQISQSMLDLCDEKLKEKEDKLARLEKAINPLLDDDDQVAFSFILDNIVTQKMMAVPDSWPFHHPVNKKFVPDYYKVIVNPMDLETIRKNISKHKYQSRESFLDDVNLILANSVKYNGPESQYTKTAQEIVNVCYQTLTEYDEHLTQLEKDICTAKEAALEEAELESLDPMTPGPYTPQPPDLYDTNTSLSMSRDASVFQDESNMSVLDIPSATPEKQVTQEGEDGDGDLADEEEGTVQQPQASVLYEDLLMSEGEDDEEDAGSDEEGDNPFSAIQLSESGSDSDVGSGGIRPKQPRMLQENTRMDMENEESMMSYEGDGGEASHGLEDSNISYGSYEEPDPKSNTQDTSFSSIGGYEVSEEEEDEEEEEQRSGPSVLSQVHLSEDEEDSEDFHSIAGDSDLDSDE

CK1d = target: T2, CK1d (Homo sapiens, UniProt P48730)
T2 construct: gene CSNK1D
T2 sequence (P48730 whole entry): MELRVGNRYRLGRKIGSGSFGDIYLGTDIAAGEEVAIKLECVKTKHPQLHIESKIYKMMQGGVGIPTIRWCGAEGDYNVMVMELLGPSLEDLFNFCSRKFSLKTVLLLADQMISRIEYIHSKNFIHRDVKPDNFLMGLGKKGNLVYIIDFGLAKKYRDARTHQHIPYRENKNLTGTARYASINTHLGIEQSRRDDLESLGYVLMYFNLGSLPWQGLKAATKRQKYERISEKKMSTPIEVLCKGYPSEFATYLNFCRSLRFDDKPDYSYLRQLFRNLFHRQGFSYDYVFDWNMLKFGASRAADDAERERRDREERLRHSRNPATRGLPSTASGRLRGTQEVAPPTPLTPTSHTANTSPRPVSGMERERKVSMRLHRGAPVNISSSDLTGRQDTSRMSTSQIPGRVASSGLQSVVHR

AAK1 = AAK1 (Homo sapiens, UniProt Q2M2I8)
Sequence of AAK1 (Q2M2I8 whole entry): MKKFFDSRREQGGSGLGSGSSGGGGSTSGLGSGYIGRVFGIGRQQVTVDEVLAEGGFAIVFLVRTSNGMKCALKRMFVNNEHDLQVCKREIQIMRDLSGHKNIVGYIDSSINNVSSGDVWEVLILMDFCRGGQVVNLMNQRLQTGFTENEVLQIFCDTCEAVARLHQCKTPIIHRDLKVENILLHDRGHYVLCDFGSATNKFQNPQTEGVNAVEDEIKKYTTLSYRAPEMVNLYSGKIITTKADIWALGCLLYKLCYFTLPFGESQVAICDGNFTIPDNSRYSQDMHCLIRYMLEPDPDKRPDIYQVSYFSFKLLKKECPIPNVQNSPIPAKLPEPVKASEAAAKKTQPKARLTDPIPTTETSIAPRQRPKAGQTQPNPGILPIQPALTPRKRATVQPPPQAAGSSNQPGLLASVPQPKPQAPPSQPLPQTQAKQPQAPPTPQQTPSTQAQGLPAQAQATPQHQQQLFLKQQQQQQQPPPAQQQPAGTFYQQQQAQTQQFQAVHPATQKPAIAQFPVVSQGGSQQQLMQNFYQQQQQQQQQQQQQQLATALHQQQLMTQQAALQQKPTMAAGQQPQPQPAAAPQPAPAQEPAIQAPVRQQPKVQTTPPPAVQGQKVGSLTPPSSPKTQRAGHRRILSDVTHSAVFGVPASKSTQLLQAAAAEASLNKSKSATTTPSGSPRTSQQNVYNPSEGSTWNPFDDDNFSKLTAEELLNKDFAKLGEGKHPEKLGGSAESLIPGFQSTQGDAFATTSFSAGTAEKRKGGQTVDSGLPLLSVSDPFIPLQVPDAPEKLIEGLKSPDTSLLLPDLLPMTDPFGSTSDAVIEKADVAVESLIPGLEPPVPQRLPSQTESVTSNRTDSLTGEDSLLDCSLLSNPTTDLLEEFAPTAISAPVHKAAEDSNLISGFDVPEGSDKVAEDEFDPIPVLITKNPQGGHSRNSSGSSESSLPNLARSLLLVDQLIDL

CSNK2a2 = target: T3, CSNK2a2 (Homo sapiens, UniProt P19784)
T3 construct: kinase domain

ABL1 = ABL1 (Homo sapiens, UniProt P00519)
MAPK15 = target: T4, MAPK15 (Homo sapiens, UniProt Q8TD08)
T4 sequence (Q8TD08 1-544): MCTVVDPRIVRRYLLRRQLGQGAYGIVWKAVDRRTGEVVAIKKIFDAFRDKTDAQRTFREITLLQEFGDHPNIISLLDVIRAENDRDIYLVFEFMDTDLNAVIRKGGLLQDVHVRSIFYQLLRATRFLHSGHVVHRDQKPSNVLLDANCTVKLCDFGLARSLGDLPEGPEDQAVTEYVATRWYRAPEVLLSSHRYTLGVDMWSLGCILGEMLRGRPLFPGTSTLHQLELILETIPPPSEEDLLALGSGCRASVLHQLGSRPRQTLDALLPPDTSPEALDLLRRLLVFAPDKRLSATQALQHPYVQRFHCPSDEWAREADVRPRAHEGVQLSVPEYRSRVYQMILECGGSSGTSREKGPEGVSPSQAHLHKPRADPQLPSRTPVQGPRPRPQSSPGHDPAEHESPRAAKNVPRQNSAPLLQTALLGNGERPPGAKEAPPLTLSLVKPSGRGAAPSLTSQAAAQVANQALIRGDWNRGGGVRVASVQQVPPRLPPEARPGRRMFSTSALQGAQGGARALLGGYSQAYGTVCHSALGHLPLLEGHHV

CHK2 = target: T5, CHK2 (Homo sapiens, UniProt O96017)
T5 construct: gene CHEK2

JNK3 = target: T6, JNK3 (Homo sapiens, UniProt P53779)
T6 construct: gene MAPK10

p38d = target: T7, p38d (Homo sapiens, UniProt O15264)
T7 construct: gene MAPK13
T7 sequence (O15264 1-365): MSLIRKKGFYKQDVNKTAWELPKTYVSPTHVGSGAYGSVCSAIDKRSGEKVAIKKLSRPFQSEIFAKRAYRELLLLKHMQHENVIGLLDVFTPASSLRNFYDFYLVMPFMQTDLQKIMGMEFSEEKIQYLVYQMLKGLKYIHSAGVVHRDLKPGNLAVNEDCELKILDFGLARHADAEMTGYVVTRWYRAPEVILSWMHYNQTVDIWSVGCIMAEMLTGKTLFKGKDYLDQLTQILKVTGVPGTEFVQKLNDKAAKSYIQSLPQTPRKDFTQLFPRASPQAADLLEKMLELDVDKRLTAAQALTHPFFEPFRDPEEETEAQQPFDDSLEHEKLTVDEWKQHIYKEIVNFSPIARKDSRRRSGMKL

MARK3 = MARK3 (Homo sapiens, UniProt P27448)
Sequence of MARK3 (P27448 whole entry): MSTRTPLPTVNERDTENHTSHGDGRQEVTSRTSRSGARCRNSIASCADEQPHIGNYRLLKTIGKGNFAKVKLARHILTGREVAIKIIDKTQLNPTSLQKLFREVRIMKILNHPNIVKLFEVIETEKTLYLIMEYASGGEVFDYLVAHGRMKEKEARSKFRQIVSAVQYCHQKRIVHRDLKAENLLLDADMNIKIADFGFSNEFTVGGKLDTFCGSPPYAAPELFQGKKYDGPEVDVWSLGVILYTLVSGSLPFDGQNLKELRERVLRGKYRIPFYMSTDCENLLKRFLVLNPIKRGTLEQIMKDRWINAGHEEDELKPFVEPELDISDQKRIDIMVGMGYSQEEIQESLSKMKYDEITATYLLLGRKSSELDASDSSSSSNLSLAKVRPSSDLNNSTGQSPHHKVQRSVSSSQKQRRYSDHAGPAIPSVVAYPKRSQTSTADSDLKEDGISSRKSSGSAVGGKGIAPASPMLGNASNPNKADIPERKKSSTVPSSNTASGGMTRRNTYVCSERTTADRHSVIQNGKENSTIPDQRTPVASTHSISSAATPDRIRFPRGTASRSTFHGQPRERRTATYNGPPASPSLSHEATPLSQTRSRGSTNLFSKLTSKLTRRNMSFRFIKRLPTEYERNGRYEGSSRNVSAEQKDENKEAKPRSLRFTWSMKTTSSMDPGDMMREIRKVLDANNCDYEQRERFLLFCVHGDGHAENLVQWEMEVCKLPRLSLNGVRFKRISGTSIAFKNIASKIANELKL

ΔTm at 10 µM (CSNK1E; read-out: 7c): 1 °C | ΔTm at 10 µM (PAK1; read-out: 7c): -1 °C | ΔTm at 10 µM (BRD4; read-out: 7c): 1 °C | ΔTm at 10 µM (MAP2K1; read-out: 7c): 1 °C | ΔTm at 10 µM (JNK1; read-out: 7c): 1 °C | ΔTm at 10 µM (TAF1; read-out: 7c): 1 °C | ΔTm at 10 µM (CK1d; read-out: 7c): 2 °C | ΔTm at 10 µM (AAK1; read-out: 7c): 5 °C | ΔTm at 10 µM (CSNK2a2; read-out: 7c): 15 °C | ΔTm at 10 µM (ABL1; read-out: 7c): 7 °C | ΔTm at 10 µM (CHK2; read-out: 7c): 3 °C | ΔTm at 10 µM (JNK3; read-out: 7c): 1 °C | ΔTm at 10 µM (p38d; read-out: 7c): 0 °C | ΔTm at 10 µM (MARK3; read-out: 7c): -1 °C
SMILES: COc1ccc(OC(C)C)cc1Nc1cncc(-c2ccc(C(=O)O)cc2)n1 [7c]
ΔTm at 10 µM (MAPK15; read-out: 7c): 10 °C

ΔTm at 10 µM (CSNK1E; read-out: 6c): 3 °C | ΔTm at 10 µM (PAK1; read-out: 6c): 0 °C | ΔTm at 10 µM (BRD4; read-out: 6c): 2 °C | ΔTm at 10 µM (MAP2K1; read-out: 6c): 1 °C | ΔTm at 10 µM (JNK1; read-out: 6c): 3 °C | ΔTm at 10 µM (TAF1; read-out: 6c): 1 °C | ΔTm at 10 µM (CK1d; read-out: 6c): 3 °C | ΔTm at 10 µM (AAK1; read-out: 6c): 6 °C | ΔTm at 10 µM (CSNK2a2; read-out: 6c): 16 °C | ΔTm at 10 µM (ABL1; read-out: 6c): 8 °C | ΔTm at 10 µM (CHK2; read-out: 6c): 4 °C | ΔTm at 10 µM (JNK3; read-out: 6c): 3 °C | ΔTm at 10 µM (p38d; read-out: 6c): 1 °C | ΔTm at 10 µM (MARK3; read-out: 6c): -1 °C
SMILES: CC(C)Oc1ccc2ccn(-c3cncc(-c4ccc(C(=O)O)cc4)n3)c2c1 [6c]
ΔTm at 10 µM (MAPK15; read-out: 6c): 15 °C

ΔTm at 10 µM (CSNK1E; read-out: 2): 2 °C | ΔTm at 10 µM (PAK1; read-out: 2): 1 °C | ΔTm at 10 µM (BRD4; read-out: 2): 2 °C | ΔTm at 10 µM (MAP2K1; read-out: 2): 2 °C | ΔTm at 10 µM (JNK1; read-out: 2): 6 °C | ΔTm at 10 µM (TAF1; read-out: 2): 0 °C | ΔTm at 10 µM (CK1d; read-out: 2): 3 °C | ΔTm at 10 µM (AAK1; read-out: 2): 7 °C | ΔTm at 10 µM (CSNK2a2; read-out: 2): 15 °C | ΔTm at 10 µM (ABL1; read-out: 2): 7 °C | ΔTm at 10 µM (CHK2; read-out: 2): 6 °C | ΔTm at 10 µM (JNK3; read-out: 2): 6 °C | ΔTm at 10 µM (p38d; read-out: 2): 0 °C | ΔTm at 10 µM (MARK3; read-out: 2): 0 °C
SMILES: CC(C)Nc1ccc2cnn(-c3cncc(-c4ccc(C(=O)O)cc4)n3)c2c1 [compound 2, 2]
ΔTm at 10 µM (MAPK15; read-out: 2): 12 °C
